Data on 2 compounds can be found in article PMC2813745, “A novel inhibitor of the PI3K/Akt pathway based on the structure of inositol 1,3,4,5,6-pentakisphosphate” (British Journal of Cancer, 2010).

pIC50: −log10 of the molar value.

By inhibition is commonly meant the change of the read-out against control, counted positive when it falls. Usually pIC50 stands for the IC50 on a negative log10 scale, so that one unit is a factor of ten. A high value points to a low IC50.

One data set deals with ABL1 (Homo sapiens, UniProt P00519). Briefly: SelectScreen kinase profiling: ABL1. The conditions noted are these: [ATP] 10 µM. The data set is classed as biochemical. The procedure:
(§1) Effect of the indicated compounds on the activity of various kinases was assessed by SelectScreen Kinase Profiling Service (Invitrogen-Life Technologies, Paisley, UK). Assays were performed using 1 μM of the tested compounds and ATP concentration as indicated in the corresponding tables. In the case of […] a screen using 10 μM of the compound was also carried out, as indicated in the corresponding table.

A further data set addresses AKT2 (PKBβ) (Homo sapiens, UniProt P31751). Briefly: SelectScreen kinase profiling: AKT2. The data set is classed as biochemical. The conditions noted are these: for pIC50: 10-point titration, [ATP] 200 μM. The procedure: as §1
A further data set addresses AKT3 (PKBγ) (Homo sapiens, UniProt Q9Y243). The data set can be described thus: SelectScreen kinase profiling: AKT3. Format: biochemical. The conditions noted are these: [ATP] 100 µM. On the procedure:
as §1

The next data set has as its target CDC42 BPA (MRCKA) (Homo sapiens, UniProt Q5VT25). The data set can be described thus: SelectScreen kinase profiling: CDC42 BPA. The data set is classed as biochemical. The conditions noted are these: [ATP] 5 µM. On the procedure: as §1
The target in a further data set is CHEK2 (CHK2) (Homo sapiens, UniProt O96017). Briefly: SelectScreen kinase profiling: CHEK2. The data set is classed as biochemical. The conditions noted are these: [ATP] 75 µM. On the procedure:
as §1

A further data set concerns the target GRK5 (Homo sapiens, UniProt P34947). Briefly: SelectScreen kinase profiling: GRK5. The data set is classed as biochemical. The conditions noted are these: 1 µM compound; [ATP] 5 µM. On the procedure: as §1
Another data set concerns the target IRAK4 (Homo sapiens, UniProt Q9NWZ3). Briefly: SelectScreen kinase profiling: IRAK4. Format: biochemical. The conditions noted are these: [ATP] 25 µM. On the procedure: as §1
Another data set concerns the target MAP2K1 (MEK1) (Homo sapiens, UniProt Q02750). Briefly: SelectScreen kinase profiling: MAP2K1. The data set is classed as biochemical. Conditions: [ATP] 100 µM. The procedure:
as §1

The next data set has as its target MAPK14 (p38α) (Homo sapiens, UniProt Q16539). Briefly: SelectScreen kinase profiling: MAPK14. The conditions noted are these: 1 µM compound; [ATP] 100 µM. Format: biochemical. The procedure:
as §1

The next data set deals with MAPK3 (ERK1) (Homo sapiens, UniProt P27361). Briefly: SelectScreen kinase profiling: MAPK3. Format: biochemical. The conditions noted are these: [ATP] 50 µM. The procedure:
as §1

The target in the next data set is PAK6 (Homo sapiens, UniProt Q9NQU5). Briefly: SelectScreen kinase profiling: PAK6. The conditions noted are these: [ATP] 10 µM. The data set is classed as biochemical. The procedure:
as §1

The target of the next data set is T1, PDK1 (Homo sapiens, UniProt O15530).
T1 sequence (O15530 1-556): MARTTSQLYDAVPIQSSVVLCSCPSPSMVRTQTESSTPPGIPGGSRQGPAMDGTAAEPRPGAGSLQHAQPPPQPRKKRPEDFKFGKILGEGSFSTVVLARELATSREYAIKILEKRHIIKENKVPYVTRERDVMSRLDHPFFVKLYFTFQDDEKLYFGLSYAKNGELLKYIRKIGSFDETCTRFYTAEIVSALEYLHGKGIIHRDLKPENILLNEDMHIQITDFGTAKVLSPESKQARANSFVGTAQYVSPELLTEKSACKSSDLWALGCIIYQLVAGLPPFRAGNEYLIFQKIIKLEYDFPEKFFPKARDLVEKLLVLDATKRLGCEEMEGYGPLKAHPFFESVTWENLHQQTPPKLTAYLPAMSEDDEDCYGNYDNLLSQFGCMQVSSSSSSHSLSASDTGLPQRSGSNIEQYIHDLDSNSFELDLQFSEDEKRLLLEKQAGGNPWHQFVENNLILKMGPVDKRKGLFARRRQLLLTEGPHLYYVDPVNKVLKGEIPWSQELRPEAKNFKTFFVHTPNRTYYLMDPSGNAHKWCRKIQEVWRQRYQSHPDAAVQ
Briefly: SelectScreen kinase profiling: PDK1. Format: biochemical. The conditions noted are these: for pIC50: 10-point titration, [ATP] 100 μM. On the procedure:
as §1

A further data set concerns the target PRKACA (PKA) (Homo sapiens, UniProt P17612). Briefly: SelectScreen kinase profiling: PRKACA. The conditions noted are these: [ATP] 5 µM. Format: biochemical. The procedure: as §1
A further data set deals with CDK9/cyclin T1 (Homo sapiens, UniProt P50750). The data set can be described thus: SelectScreen kinase profiling: CDK9/cyclin T1. Format: biochemical. Conditions: [ATP] 25 µM. On the procedure:
as §1

Data set [1] deals with PIK3CD/PIK3R1(p110δ/p85α) (Homo sapiens, UniProt O00329). Briefly: SelectScreen kinase profiling: PIK3CD/PIK3R1. Format: biochemical. Conditions: [ATP] 25 µM. On the procedure: as §1
A further data set addresses PIK3CG (p110γ) (Homo sapiens, UniProt P48736). The data set can be described thus: SelectScreen kinase profiling: PIK3CG. Conditions: [ATP] 25 µM. The data set is classed as biochemical. On the procedure:
as §1

The next data set can be described thus: Toxicity in mice. Format: in vivo, nude CD-1 mice. The conditions noted are these: for body weight of the treated animals / toxicity: 12.5, 25, 50 mg kg^−1 day^−1 i.p., 14 consecutive days; for toxic effect: single dose 750 mg kg^−1 i.p. On the procedure:
Each group consisted of 2–3 mice. Body weight, deaths and any other sign of toxicity and changes in behaviour (such as motility, eating and drinking habits) were recorded.
Exponentially growing PC3 cells were harvested, washed twice and resuspended in PBS at a concentration of 2.5 × 10^7 cells ml^−1. A suspension of 5 × 10^6 PC3 cells was injected subcutaneously (s.c.) into the left flank of the recipient mice. When tumours reached a size of ∼70 mm^3 (approximately 15 days after tumour cell implant), mice were divided into seven groups (n=7). […] Control mice were treated with water in an equal volume. The diameters of s.c. growing tumours were measured with a caliper twice a week and the experiment was ended at day 28 after the implantation.
The inositol compounds (12.5–25–50 mg kg^−1 day^−1) and vehicle (water) were given daily by intraperitoneal (i.p.) injections for 14 consecutive days (days 15–28). Tumour size was assessed twice weekly. (A, B) Tumour growth in 2-O-Bn-InsP5-treated mice (A) and InsP5-treated mice (B) compared with control group measured for the duration of the experiment. Results are expressed as mean±s.e. (C) Top: Table showing all P-values for the indicated doses of 2-O-Bn-InsP5 compared to controls at the indicated days of treatment (NS=not significant). Bottom: In vivo anti-tumour activity parameters. The percentage of tumour weight inhibition (TWI%), the tumour growth delay (T−C) and the log cell kill (LCK) were calculated as described in the MATERIALS AND METHODS section. The highest inhibition of tumour volume is reported. […] Tumours were excised 24 h after treatment. Phosphorylation of Akt at its residues Ser473 and Thr308 was assessed by using specific antibodies. Membranes were then stripped and re-probed with an anti-Akt antibody.

[2] abbreviates: 1 µM compound, [ATP] 100 µM, single point.

Sequence of AKT2 (PKBβ) (P31751 whole entry): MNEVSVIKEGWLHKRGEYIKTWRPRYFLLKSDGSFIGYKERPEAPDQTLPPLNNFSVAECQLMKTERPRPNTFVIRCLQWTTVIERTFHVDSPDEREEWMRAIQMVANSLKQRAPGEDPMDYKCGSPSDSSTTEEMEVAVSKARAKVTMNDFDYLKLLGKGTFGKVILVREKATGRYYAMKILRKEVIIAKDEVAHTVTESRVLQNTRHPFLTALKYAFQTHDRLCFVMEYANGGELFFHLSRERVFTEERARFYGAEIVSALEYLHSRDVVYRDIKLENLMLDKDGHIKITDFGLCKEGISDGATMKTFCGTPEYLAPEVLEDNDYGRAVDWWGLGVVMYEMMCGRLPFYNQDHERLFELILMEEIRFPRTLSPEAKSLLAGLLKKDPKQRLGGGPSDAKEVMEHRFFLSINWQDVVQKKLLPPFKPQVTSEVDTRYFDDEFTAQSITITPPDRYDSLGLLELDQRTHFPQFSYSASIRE
Sequence of AKT3 (PKBγ) (Q9Y243 whole entry): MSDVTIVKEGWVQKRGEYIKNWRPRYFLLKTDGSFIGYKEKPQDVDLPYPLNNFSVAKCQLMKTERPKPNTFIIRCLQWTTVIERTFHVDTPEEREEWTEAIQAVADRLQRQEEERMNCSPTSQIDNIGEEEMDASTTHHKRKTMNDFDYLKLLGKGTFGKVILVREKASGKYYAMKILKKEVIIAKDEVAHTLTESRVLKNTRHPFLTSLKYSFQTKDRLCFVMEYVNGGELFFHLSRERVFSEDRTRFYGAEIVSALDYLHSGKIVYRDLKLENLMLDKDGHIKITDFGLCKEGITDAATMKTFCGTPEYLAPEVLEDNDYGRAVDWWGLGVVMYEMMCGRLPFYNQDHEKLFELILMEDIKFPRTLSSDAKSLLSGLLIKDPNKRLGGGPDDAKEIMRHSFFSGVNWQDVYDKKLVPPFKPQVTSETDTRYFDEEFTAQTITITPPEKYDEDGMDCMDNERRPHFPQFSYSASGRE
Sequence of PAK6 (Q9NQU5 whole entry): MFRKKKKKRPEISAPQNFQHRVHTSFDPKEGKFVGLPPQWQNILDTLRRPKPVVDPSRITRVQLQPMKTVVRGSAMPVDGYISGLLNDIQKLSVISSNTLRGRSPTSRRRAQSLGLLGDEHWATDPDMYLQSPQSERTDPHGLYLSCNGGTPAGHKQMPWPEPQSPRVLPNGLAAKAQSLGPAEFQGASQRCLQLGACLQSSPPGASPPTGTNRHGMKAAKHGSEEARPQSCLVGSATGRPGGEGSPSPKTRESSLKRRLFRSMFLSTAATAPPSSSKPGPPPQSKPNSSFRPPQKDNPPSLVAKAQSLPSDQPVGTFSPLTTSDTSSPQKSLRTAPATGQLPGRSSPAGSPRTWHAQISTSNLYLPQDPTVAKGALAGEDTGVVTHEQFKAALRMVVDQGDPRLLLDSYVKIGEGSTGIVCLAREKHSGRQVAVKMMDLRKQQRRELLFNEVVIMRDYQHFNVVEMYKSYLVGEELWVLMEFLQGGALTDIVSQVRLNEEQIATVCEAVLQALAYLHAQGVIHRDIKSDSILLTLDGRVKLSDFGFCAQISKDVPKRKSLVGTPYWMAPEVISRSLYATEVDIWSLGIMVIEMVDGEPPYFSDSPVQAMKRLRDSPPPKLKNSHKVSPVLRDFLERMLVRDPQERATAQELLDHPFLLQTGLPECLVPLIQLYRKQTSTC
Sequence of CDK9/cyclin T1 (P50750 whole entry): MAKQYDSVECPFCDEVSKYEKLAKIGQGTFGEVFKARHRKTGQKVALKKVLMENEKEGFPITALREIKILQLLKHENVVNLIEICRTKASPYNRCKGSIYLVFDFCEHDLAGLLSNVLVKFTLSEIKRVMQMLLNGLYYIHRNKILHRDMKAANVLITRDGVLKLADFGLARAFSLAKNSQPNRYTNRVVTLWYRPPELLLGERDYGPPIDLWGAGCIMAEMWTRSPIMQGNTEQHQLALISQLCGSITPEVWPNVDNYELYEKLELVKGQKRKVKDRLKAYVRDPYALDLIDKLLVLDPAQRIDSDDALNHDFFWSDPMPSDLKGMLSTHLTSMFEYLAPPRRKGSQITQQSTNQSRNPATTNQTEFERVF
Sequence of CDK9/cyclin T1 (O60563 whole entry partner): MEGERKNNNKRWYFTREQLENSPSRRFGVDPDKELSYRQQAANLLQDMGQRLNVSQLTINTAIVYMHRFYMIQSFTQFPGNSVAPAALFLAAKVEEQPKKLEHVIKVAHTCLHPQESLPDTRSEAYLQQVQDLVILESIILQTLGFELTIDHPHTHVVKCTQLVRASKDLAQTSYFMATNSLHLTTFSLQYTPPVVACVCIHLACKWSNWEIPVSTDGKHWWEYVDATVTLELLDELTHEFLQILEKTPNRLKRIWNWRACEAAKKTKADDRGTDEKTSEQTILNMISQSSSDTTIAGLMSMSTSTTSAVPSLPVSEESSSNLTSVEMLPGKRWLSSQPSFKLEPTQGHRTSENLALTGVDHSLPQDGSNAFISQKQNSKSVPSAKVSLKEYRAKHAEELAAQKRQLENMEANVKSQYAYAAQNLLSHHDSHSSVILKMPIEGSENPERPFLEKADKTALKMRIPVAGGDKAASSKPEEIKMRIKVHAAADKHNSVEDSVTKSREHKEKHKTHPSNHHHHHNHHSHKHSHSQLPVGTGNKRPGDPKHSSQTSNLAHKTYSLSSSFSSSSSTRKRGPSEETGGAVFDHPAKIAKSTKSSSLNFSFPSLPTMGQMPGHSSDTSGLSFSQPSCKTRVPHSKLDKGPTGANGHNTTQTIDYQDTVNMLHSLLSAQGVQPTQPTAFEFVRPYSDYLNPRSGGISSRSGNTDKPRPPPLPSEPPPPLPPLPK
Sequence of CHEK2 (CHK2) (O96017 whole entry): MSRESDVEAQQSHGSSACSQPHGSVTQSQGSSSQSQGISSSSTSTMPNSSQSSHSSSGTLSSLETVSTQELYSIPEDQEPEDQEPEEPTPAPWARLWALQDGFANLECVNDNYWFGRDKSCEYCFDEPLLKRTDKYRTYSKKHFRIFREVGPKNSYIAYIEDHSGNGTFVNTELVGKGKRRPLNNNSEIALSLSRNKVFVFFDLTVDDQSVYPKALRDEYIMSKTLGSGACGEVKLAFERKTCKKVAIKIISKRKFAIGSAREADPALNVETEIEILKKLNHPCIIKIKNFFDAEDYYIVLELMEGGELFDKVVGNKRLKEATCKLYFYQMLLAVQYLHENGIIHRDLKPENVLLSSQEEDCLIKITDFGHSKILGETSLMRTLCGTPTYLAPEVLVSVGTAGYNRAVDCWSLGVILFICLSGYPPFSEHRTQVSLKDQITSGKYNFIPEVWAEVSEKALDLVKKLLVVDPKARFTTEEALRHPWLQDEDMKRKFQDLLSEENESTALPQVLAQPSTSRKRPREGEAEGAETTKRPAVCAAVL
Sequence of MAPK3 (ERK1) (P27361 whole entry): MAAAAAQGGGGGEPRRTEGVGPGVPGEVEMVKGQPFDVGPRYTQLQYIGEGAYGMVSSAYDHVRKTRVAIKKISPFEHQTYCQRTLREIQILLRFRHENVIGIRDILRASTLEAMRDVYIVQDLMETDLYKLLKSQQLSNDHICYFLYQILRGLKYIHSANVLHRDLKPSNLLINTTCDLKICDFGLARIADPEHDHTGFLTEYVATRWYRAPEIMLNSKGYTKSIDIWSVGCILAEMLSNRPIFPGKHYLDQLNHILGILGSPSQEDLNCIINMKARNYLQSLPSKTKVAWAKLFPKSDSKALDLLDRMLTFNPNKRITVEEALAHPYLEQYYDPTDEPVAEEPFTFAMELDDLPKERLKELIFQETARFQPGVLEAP
Sequence of GRK5 (P34947 whole entry): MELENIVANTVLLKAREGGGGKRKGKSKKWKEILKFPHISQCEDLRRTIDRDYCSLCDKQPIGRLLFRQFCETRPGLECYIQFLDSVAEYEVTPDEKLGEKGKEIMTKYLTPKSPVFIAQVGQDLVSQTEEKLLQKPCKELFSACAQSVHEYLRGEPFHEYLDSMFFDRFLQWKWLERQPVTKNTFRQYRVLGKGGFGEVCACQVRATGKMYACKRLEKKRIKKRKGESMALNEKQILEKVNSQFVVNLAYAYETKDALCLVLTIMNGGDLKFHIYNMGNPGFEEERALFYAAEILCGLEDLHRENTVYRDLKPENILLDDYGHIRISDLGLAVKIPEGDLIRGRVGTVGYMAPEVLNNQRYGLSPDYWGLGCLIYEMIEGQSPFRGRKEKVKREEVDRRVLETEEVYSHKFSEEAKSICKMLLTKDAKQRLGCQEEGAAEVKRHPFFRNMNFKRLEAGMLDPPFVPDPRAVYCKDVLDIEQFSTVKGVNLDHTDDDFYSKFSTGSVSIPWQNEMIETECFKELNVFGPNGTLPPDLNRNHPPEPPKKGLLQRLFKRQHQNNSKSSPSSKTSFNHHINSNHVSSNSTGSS
Sequence of MAPK14 (p38α) (Q16539 whole entry): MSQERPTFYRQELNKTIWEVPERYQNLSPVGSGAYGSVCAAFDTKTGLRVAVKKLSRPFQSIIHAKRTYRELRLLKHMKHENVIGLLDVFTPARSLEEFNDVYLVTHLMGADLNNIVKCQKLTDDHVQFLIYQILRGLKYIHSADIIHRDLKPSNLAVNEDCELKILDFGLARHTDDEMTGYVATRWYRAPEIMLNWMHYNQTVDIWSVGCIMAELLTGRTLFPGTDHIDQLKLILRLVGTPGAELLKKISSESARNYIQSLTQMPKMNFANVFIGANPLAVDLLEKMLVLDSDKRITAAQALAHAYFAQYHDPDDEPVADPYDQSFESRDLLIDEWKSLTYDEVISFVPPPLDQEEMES

As for `O=P(O)(O)OC1C(OCc2ccccc2)C(OP(=O)(O)O)C(OP(=O)(O)O)C(OP(=O)(O)O)C1OP(=O)(O)O` (centres unmarked) [2-O-Bn-InsP5, 2-O-benzyl-myo-inositol 1,3,4,5,6-pentakisphosphate], the inhibition at 1 µM on ABL1 (1 µM compound) came to 0%; against AKT2 (PKBβ) (1 µM compound, [ATP] 200 µM) it was 16%; on AKT3 (PKBγ) (1 µM compound), 10%; at CDC42 BPA (MRCKA) (1 µM compound) it was 17%; at CHEK2 (CHK2) (1 µM compound) it was 12%; at GRK5 it was 34%. The inhibition at 1 µM on IRAK4 (1 µM compound) was -35%; against MAP2K1 (MEK1) (1 µM compound), 14%; against MAPK14 (p38α) it was 30%; against MAPK3 (ERK1) (1 µM compound) it was 19%; against PAK6 (1 µM compound), 9%; against PDK1 (setting [2]), 79%. Also, the inhibition at 1 µM is 4% on PRKACA (PKA) (1 µM compound), -11% on CDK9/cyclin T1 (1 µM compound), 6% in [1] (1 µM compound) and -41% against PIK3CG (p110γ) (1 µM compound). Moreover, the negative-log IC50 (pIC50) was 4.11 at AKT2 (PKBβ) and 7.58 against PDK1. For the same compound, the “body weight of the treated animals” value in the data set “Toxicity in mice” is given as “not different from the untreated mice”. For the same compound, the toxicity result in the data set “Toxicity in mice” is reported as “no evidence of toxicity”. Besides, the tolerability in vivo result in the data set “Toxicity in mice” (relative to the active dose) is given as “well tolerated in vivo even at concentrations 15 times higher the active dose”. Besides, the toxic effect result in the data set “Toxicity in mice” is on record as “did not cause any major toxic effect”.

Consider `O=P(O)(O)OC1C(O)C(OP(=O)(O)O)C(OP(=O)(O)O)C(OP(=O)(O)O)C1OP(=O)(O)O` (centres unmarked) [InsP5, inositol 1,3,4,5,6-pentakisphosphate], for which the inhibition at 10 µM against ABL1 (10 µM compound) was -16%; against AKT3 (PKBγ) (10 µM compound), 10%; at CDC42 BPA (MRCKA) (10 µM compound), 0%; on CHEK2 (CHK2) (10 µM compound) it was 15%; at IRAK4 (10 µM compound), -5%; on MAP2K1 (MEK1) (10 µM compound), 7%. Also, the inhibition at 10 µM is 3% against MAPK3 (ERK1) (10 µM compound); 20% against PAK6 (10 µM compound); 70% against PDK1 (10 µM compound, [ATP] 100 µM); 5% on PRKACA (PKA) (10 µM compound); 1% against CDK9/cyclin T1 (10 µM compound); -2% in data set [1] (10 µM compound). The inhibition at 10 µM against PIK3CG (p110γ) (10 µM compound) was 4%. Further, the pIC50 is 4.42 on AKT2 (PKBβ) and 6.21 at PDK1. Moreover, the inhibition at 1 µM on GRK5 is 37%; on MAPK14 (p38α), 23%; against PDK1 (setting [2]) it was 71%. The “% Inhibition Mean” value at PDK1 (setting [2]) is given as 68%. Besides, in “Toxicity in mice”, the “body weight of the treated animals” value is recorded as “not different from the untreated mice”. In addition, the toxicity entry in “Toxicity in mice” is listed as “no evidence of toxicity”. For the same compound, the toxic effect entry in “Toxicity in mice” is “did not cause any major toxic effect”.
